Reference: patent US20250161338A1, “Compounds for Anti-aging Intervention” (AGENCY FOR SCIENCE, TECHNOLOGY AND RESEARCH, priority 2022, published 2025)
Counter-ions that a name gives are not always drawn.

Legend:
[1] = tested on: prototrophic yeast strain (CEN.PK113-7D); assay: Propidium iodide fluorescence-based CLS method in yeast (incl. high-throughput screening); assay type: cell-based, Saccharomyces cerevisiae; conditions: concentration tested 100 μM; for Yeast CLS increase: Yes/No call of the screen; for PI intensity: solvent DMSO or water, chronological age point Day 7 (72 h growth = Day 1), lower = more survival;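 as to PI intensity: untreated reference is eight DMSO and water control wells per plate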
In short: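 CEN.PK113-7D aged in SD medium at 30 °C with compounds (rapamycin 0–10 nM; sugars 0–8 mM; screen at single concentrations). At each age point cells were stained with 5 μg/mL PI for 15 min; fluorescence was normalized to OD600, background-subtracted, and survival scaled against boiled-cell control.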

[2] = tested on: prototrophic yeast strain (CEN.PK113-7D); assay: Yeast outgrowth in YPD liquid medium (CLS of aged cells); assay type: cell-based, Saccharomyces cerevisiae; conditions: concentration tested 100 μM; OD600 nm after 24 h in YPD at 30° C.; age point day 14
In short: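 Cultures aged at 30 °C in SD medium with double-diluted rapamycin (0–10 nM) or sugars/polyols (0–8 mM). On day 14, 3 µL of culture was transferred into 200 µL YPD and outgrowth read as OD600. Survival expressed relative to day 1 outgrowth (100%).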

C[C@](N)(Cc1ccc(O)cc1)C(=O)O [Metyrosine, reference compound] was tested, and the “Yeast CLS increase” value [1] was “No”, the PI intensity [1] was 76,947.2 and the Outgrowth [2] was 0.1.
CN(C)c1ccc(O)c2c1C[C@H]1C[C@H]3[C@H](N(C)C)C(O)=C(C(N)=O)C(=O)[C@@]3(O)C(O)=C1C2=O [Minocycline (hydrochloride), reference compound] was tested, and the PI intensity [1] was 71,078.2 and the Outgrowth [2] was 0.1.
C/C(=C\C(=O)OCCCCCCCCC(=O)O)C[C@@H]1OC[C@H](C[C@@H]2O[C@H]2[C@@H](C)[C@H](C)O)[C@@H](O)[C@H]1O [Mupirocin, reference compound] was tested, and the “Yeast CLS increase” value [1] was “No”, the PI intensity [1] was 68,477.7 and the Outgrowth [2] was 0.1.
CN(C)c1nc2c(ncn2[C@@H]2O[C@H](CO)[C@@H](O)[C@H]2O)c(=O)[nH]1 [N2,N2-Dimethylguanosine] was tested, and the “Yeast CLS increase” value [1] was “No”, the PI intensity [1] was 65,619.9 and the Outgrowth [2] was 0.1.
In the case of CC(=O)N[C@@H](Cc1ccc(O)cc1)C(=O)O [N-Acetyl-L-tyrosine], the “Yeast CLS increase” value [1] is reported as “No”, the PI intensity [1] is reported as 57,322.5 and the Outgrowth [2] is reported as 0.1.
O=C1N[C@@H]2C(=C[C@H](O)[C@@H](O)[C@H]2O)c2cc3c(c(O)c21)OCO3 [Narciclasine] was tested, and the “Yeast CLS increase” value [1] was “No”, the PI intensity [1] was 67,161.8 and the Outgrowth [2] was 0.1.
With CC(C)(O)CCc1c(O)cc(O)c2c(=O)c(O)c(-c3ccc(O)cc3)oc12 [Noricaritin] the “Yeast CLS increase” value [1] was “No”, the PI intensity [1] was 77,179.8 and the Outgrowth [2] was 0.1.
In the case of Cn1cc(C(N)=O)ccc1=O [Nudifloramide], the “Yeast CLS increase” value [1] is reported as “No”, the PI intensity [1] is reported as 65,023.3 and the Outgrowth [2] is reported as 0.1.
In the case of CCCCCCCCCCCCCCC(=O)O [Pentadecanoic acid], the “Yeast CLS increase” value [1] is reported as “No”, the PI intensity [1] is reported as 75,173.9 and the Outgrowth [2] is reported as 0.1.
In the case of CC(O)Cn1cnc2c1c(=O)n(C)c(=O)n2C (centres unmarked) [Proxyphylline, reference compound], the “Yeast CLS increase” value [1] is reported as “No”, the PI intensity [1] is reported as 72,232.1 and the Outgrowth [2] is reported as 0.1.
In the case of c1ncc2[nH]cnc2n1 [Purine], the “Yeast CLS increase” value [1] is reported as “No”, the PI intensity [1] is reported as 53,185.1 and the Outgrowth [2] is reported as 0.1.
Cl.Cl.[O-][S+]1c2ccccc2N=C(N2CCN(CCOCCO)CC2)c2ccccc21 (centres unmarked) [Quetiapine sulfoxide (dihydrochloride)] was tested, and the “Yeast CLS increase” value [1] was “No”, the PI intensity [1] was 68,761.6 and the Outgrowth [2] was 0.1.
C=C[C@H]1C[N@@]2CC[C@H]1C[C@H]2[C@H](O)c1ccnc2ccc(OC)cc12 [Quinine (hydrochloride dihydrate), reference compound] was tested, and the “Yeast CLS increase” value [1] was “No” and the Outgrowth [2] was 0.1.
In the case of CO[C@H]1C[C@@H]2CC[C@@H](C)[C@@](O)(O2)C(=O)C(=O)N2CCCC[C@H]2C(=O)O[C@H]([C@H](C)C[C@@H]2CC[C@@H](O)[C@H](OC)C2)CC(=O)[C@H](C)/C=C(\C)[C@@H](O)[C@@H](OC)C(=O)[C@H](C)C[C@H](C)/C=C/C=C/C=C/1C [Rapamycin, reference compound], the PI intensity [1] is reported as 21,460.5 and the Outgrowth [2] is reported as 1.3.
With CC1=C(/C=C/C(C)=C/C=C/C(C)=C/C(=O)O)C(C)(C)CCC1 [Retinoic acid, reference compound] the PI intensity [1] was 85,242.6 and the Outgrowth [2] was 0.1.
In the case of CC[C@H]1CN2CC[C@]3(C(=O)Nc4ccccc43)[C@@H]2C[C@@H]1/C(=C\OC)C(=O)OC [Rhynchophylline], the “Yeast CLS increase” value [1] is reported as “No”, the PI intensity [1] is reported as 55,562.5 and the Outgrowth [2] is reported as 0.1.
For CO[C@H]1/C=C/O[C@@]2(C)Oc3c(C)c([O-])c4c(O)c(cc(O)c4c3C2=O)NC(=O)/C(C)=C\C=C\[C@H](C)[C@H](O)[C@@H](C)[C@@H](O)[C@@H](C)[C@H](OC(C)=O)[C@@H]1C.[Na+] [Rifamycin (sodium), reference compound], the “Yeast CLS increase” value [1] was “Yes”, the PI intensity [1] was 39,446.0 and the Outgrowth [2] was 0.6.
C[C@H]1CNCCCN1S(=O)(=O)c1cccc2cncc(F)c12 [Ripasudil, reference compound] was tested, and the “Yeast CLS increase” value [1] was “No”, the PI intensity [1] was 77,962.0 and the Outgrowth [2] was 0.1.
O=C(O)/C=C/CCCCCCCO [Royal Jelly acid] was tested, and the “Yeast CLS increase” value [1] was “No”, the PI intensity [1] was 65,406.1 and the Outgrowth [2] was 0.1.
In the case of CC[C@@]1(O)C(=O)OCc2c1cc1n(c2=O)Cc2cc3c([N+](=O)[O-])cccc3nc2-1 [Rubitecan], the “Yeast CLS increase” value [1] is reported as “No”, the PI intensity [1] is reported as 57,075.3 and the Outgrowth [2] is reported as 0.1.
In the case of COc1cc2c(c(OC)c1OC)-c1c(cc3c(c1OC)OCO3)C[C@H](C)[C@@](C)(O)C2 [Schisandrol B], the “Yeast CLS increase” value [1] is reported as “No”, the PI intensity [1] is reported as 80,051.7 and the Outgrowth [2] is reported as 0.1.
C[Se]CC[C@H](N)C(=O)O [Selenomethionine] was tested, and the “Yeast CLS increase” value [1] was “Yes”, the PI intensity [1] was 29,837.8 and the Outgrowth [2] was 1.2.
CN[C@@H]1C[C@H]2O[C@@](C)([C@@H]1OC)n1c3ccccc3c3c4c(c5c6ccccc6n2c5c31)C(=O)NC4 [Staurosporine] was tested, and the “Yeast CLS increase” value [1] was “No”, the PI intensity [1] was 67,250.9 and the Outgrowth [2] was 0.1.
For C[C@H](Cn1cnc2c(N)ncnc21)OCP(=O)(O)O.O [Tenofovir (hydrate), reference compound], the “Yeast CLS increase” value [1] was “No”, the PI intensity [1] was 76,065.0 and the Outgrowth [2] was 0.1.
For CC(C)N1CCN(c2ccc(OCC3COC(Cn4cncn4)(c4ccc(Cl)cc4Cl)O3)cc2)CC1 (centres unmarked) [Terconazole, reference compound], the “Yeast CLS increase” value [1] was “No”, the PI intensity [1] was 72,350.0 and the Outgrowth [2] was 0.1.
With Cc1nc(C)c(C)nc1C [Tetramethylpyrazine] the “Yeast CLS increase” value [1] was “No”, the PI intensity [1] was 62,003.6 and the Outgrowth [2] was 0.1.
